Data published in US10278999B2, “Synthesis of Nuxia oppositifolia nanoparticles” (KING SAUD UNIVERSITY, priority 2017, dated 2019).

What was measured:
Experiment in all cases: Antimicrobial activity, agar diffusion technique
Assay type in all cases: cell-based
Settings in all cases: mean ± S.D. beyond well diameter (6 mm), 100 μl of samples
[1] = tested on: Salmonella enteritidis (RCMB 010084)
Experimental: (§1) The antimicrobial effect of N. oppositifolia nanoparticles synthesized according to Example 1 were evaluated against gram positive bacteria, gram negative bacteria, as well as fungi.
(§2) The antimicrobial effect of N. oppositifolia nanoparticles synthesized according to Example 2 were evaluated against gram positive bacteria, gram negative bacteria, as well as fungi.

[2] = tested on: Klebsiella pneumoniae (RCMB 0010093)
Experimental: as §1, §2

[3] = tested on: Proteous vulgaris (RCMB 010085)
Experimental: as §1, §2

[4] = tested on: Candida albicans (RCMB 05036)
Experimental: as §1, §2

[5] = tested on: Geotricum candidum (RCMB 05097)
Experimental: as §1, §2

[6] = tested on: Absidia corymbifera (RCMB 02564)
Experimental: as §1, §2

[7] = tested on: Staphylococcus epidermidis (RCMB 010024)
Experimental: as §1, §2

[8] = tested on: Streptococcus pyogenes (RCMB 010015)
Experimental: as §1, §2

## Gentamycin
[1]
  Zone of Inhibition (±SD): 25.2 ± 0.18 mm
[2]
  Zone of Inhibition (±SD): 26.4 ± 0.15 mm
[3]
  Zone of Inhibition (±SD): 23.4 ± 0.30 mm

## C[C@@H]1[C@H](O)[C@@H](C)/C=C/C=C/C=C/C=C/C=C/C=C/C=C/[C@H](O[C@@H]2O[C@H](C)[C@@H](O)[C@H](N)[C@@H]2O)C[C@@H]2O[C@](O)(C[C@@H](O)C[C@@H](O)[C@H](O)CC[C@@H](O)C[C@@H](O)CC(=O)O[C@H]1C)C[C@H](O)[C@H]2C(=O)O [Amphotericin B]
[4]
  Zone of Inhibition (±SD): 25.7 ± 0.10 mm
[5]
  Zone of Inhibition (±SD): 27.0 ± 0.20 mm
[6]
  Zone of Inhibition (±SD): 23.0 ± 0.10 mm

## CC1(C)S[C@@H]2[C@H](NC(=O)[C@H](N)c3ccccc3)C(=O)N2[C@H]1C(=O)O [Ampicillin]
[7]
  Zone of Inhibition (±SD): 25.0 ± 0.18 mm
[8]
  Zone of Inhibition (±SD): 26.3 ± 0.34 mm
